Measurements as given in patent publication US20230124862A1, “BISMUTH THIOL COMPOUNDS AND COMPOSITIONS AND METHODS OF TREATING MICROBIAL CO-INFECTIONS” (Microbion Corporation, priority 2020, published 2023).
Converted amounts (≈) assume the structure as drawn. “And” between values parts separate entries of the source, which are not always exact repeats. Equal entries are not always repeated. Where two headings read alike, the source gives them in different places.

What was measured:
M. abscessus complex = assay: MIC testing of CF isolates; assay type: cell-based, Mycobacterium abscessus
S. aureus [1] = assay: Broth microdilution MIC (Example 11); assay type: cell-based, Staphylococcus aureus; conditions: Staphylococcus aureus, ATCC 29213 / MSSA, S. aureus MMX 101 (ATCC 29213); QC; MSSA; read-out: MIC
Enterococcus spp. = assay: Broth microdilution MIC (Example 11); assay type: cell-based, E. faecalis, E. faecium; conditions: Lev^R Cip^R Ery^R, read-out: MIC
Enterobacteriaceae = conditions: E. coli MMX 102 (ATCC 25922); CLSI QC ranges shown in parenthesis; cited from earlier work
[2] = test system: P. aeruginosa and A. baumannii; conditions: P. aeruginosa MMX 103 (ATCC 27853); CLSI QC ranges shown in parenthesis; cited from earlier work
S. aureus [3] = conditions: S. aureus MMX 101 (ATCC 29213); cited from earlier work
[4] = test system: Gram-positive aerobic bacteria (S. aureus, MRSA, CA-MRSA); assay: MIC90 against 150 clinical isolates of Gram-positive aerobic bacteria; assay type: cell-based; conditions: S. aureus (50 isolates)
[5] = test system: beta-hemolytic streptococci; assay: Broth microdilution MIC (Example 11); assay type: cell-based, S. pyogenes, S. agalactiae; conditions: ERY^R CC^R, read-out: MIC
[6] = test system: vancomycin-intermediate Staphylococcus aureus (VISA); assay: Broth microdilution MIC (Example 12); assay type: cell-based; conditions: Staphylococcus aureus, NRS 13 / VISA, all isolates except NRS 13; read-out: MIC values
[7] = assay type: physicochemical
[8] = test system: Anaerobes (Bacteroides fragilis, Clostridium difficile); assay: Agar dilution MIC (Example 11); assay type: cell-based; conditions: read-out: MIC
Experimental: The susceptibility of anaerobic bacteria was determined by agar dilution using Brucella Agar (BD/BBL; Lot No. 5237692) supplemented with 5 μg/mL hemin (Sigma, St. Louis, Mo.; Lot No. 108K1088), 1 μg/mL Vitamin K1 and 5% (v/v) laked sheep blood (Cleveland Scientific, Bath, Ohio; Lot No. 322799).
Agar Dilution MIC Testing (Anaerobic Bacteria and Gonococci): MIC values for anaerobic bacteria were determined using a reference agar dilution method as described by CLSI (6). Organisms were grown at 35° C. in the Bactron II Anaerobic Chamber (Shel Lab, Cornelius, Oreg.) for approximately 48 hr prior to the assay. Drug dilutions and drug-supplemented agar plates were prepared manually per CLSI (6). The plates were allowed to stand at room temperature for 1 hr to allow the agar surface to dry and pre-reduced for approximately 1 hr in the anaerobe chamber prior to inoculation. Each isolate was suspended to the equivalent of a 0.5 McFarland standard in Brucella broth using a turbidity meter (Dade Behring MicroScan, West Sacramento, Calif.). Each bacterial cell suspension was then diluted 1:10 in Brucella broth and transferred to wells in a stainless steel replicator block which was used to inoculate the test plates. The prongs on the replicator deliver approximately 1-2 μl of inoculum to an agar surface. The resulting inoculum spots contained approximately 1×10^5 CFU/spot. After the inoculum dried, the inoculated drug-supplemented agar plates and no drug growth control plates were incubated at 35° C. for 42-48 hr in the anaerobe chamber. The MIC was read per CLSI guidelines (6).

[9] = test system: Pseudomonas aeruginosa strain PA01; assay: Bacterial killing curves with and without CF patient sputum; assay type: cell-based; conditions: tobramycin 1 μg/mL, 10% CF sputum, most time points
P. aeruginosa = assay: Checkerboard FIC/FICI assay; assay type: cell-based, Pseudomonas aeruginosa; conditions: Tobramycin in combination with BisEDT
[10] = test system: Burkholderia cepacia complex; assay: Checkerboard FIC/FICI assay; assay type: cell-based, Burkholderia spp.
[11] = non-reversing and total heat flow
[12] = P. aeruginosa 6322, one value per panel row C-G
[13] = P. aeruginosa 6977, by checkerboard
[14] = P. aeruginosa 7745, by checkerboard
[15] = P. aeruginosa 9108, by checkerboard
[16] = B. cepacia 1793, Tobramycin in combination with BisEDT, by checkerboard

## CC[C@H]1OC(=O)[C@H](C)[C@@H](O[C@H]2C[C@@](C)(OC)[C@@H](O)[C@H](C)O2)[C@H](C)[C@@H](O[C@@H]2O[C@H](C)C[C@H](N(C)C)[C@H]2O)[C@](C)(OC)C[C@@H](C)C(=O)[C@H](C)[C@@H](O)[C@]1(C)O [CLR]
M. abscessus complex; M. abscessus/massiliense complex (AMT0068-40)
  MIC: 1 µg/mL (≈ 1.34 µM)
M. abscessus complex; M. abscessus/massiliense complex (AMT0119-7)
  MIC: 1 µg/mL (≈ 1.34 µM)
M. abscessus complex; M. abscessus/massiliense complex (AMT0493-2), AMK R
  MIC: 2 µg/mL (≈ 2.67 µM)
M. abscessus complex; M. abscessus/massiliense complex (AMT01130-8)
  MIC: 1 µg/mL (≈ 1.34 µM)
M. abscessus complex; M. abscessus/massiliense complex (AMT1539)
  MIC: 2 µg/mL (≈ 2.67 µM)
M. abscessus complex; M. abscessus/massiliense complex (ATCL119977), Macrolide R (inducible)
  MIC: >32^1 ^ μg/mL

## CC(C)(O/N=C(\C(=O)N[C@@H]1C(=O)N2C(C(=O)[O-])=C(C[n+]3ccccc3)CS[C@H]12)c1csc(N)n1)C(=O)O [Ceftazidime]
S. aureus [1]
  MIC: 8 µg/mL (≈ 14.6 µM)
Enterococcus spp.; E. faecalis MMX 8960, VRE
  MIC: > 32 µg/mL
Enterococcus spp.; E. faecalis MMX 8961, VRE
  MIC: > 32 µg/mL
Enterococcus spp.; E. faecalis MMX 8962, VRE
  MIC: > 32 µg/mL
Enterococcus spp.; E. faecium MMX 485, VRE vanA
  MIC: > 32 µg/mL
Enterococcus spp.; E. faecium MMX 752, VRE vanA
  MIC: > 32 µg/mL
Enterobacteriaceae
  MIC, CLSI QC range: (0.06-0.5) μg/mL
[2]
  MIC, CLSI QC range: (1-4) μg/mL
S. aureus [3]
  CLSI QC range of MIC: (4-16) μg/mL

## C[C@@H](O)[C@H]1C(=O)N2C(C(=O)O)=C(SCCN=CN)C[C@H]12 [IPM]
[4]; CA-MRSA
  MIC90: 2 µg/mL (≈ 6.68 µM)
[4]; MRSA
  MIC90: >8 µg/mL
[4]; MSSA
  MIC90: 0.03 µg/mL (≈ 0.1 µM)

## C[C@H]1COc2c(N3CCN(C)CC3)c(F)cc3c(=O)c(C(=O)O)cn1c23 [Levofloxacin, reference compound]
S. aureus [1]
  MIC: 0.12 µg/mL (≈ 0.332 µM)
Enterococcus spp.; E. faecalis MMX 8960, VRE
  MIC: 32 µg/mL (≈ 88.6 µM)
Enterococcus spp.; E. faecalis MMX 8961, VRE
  MIC: 64 µg/mL (≈ 177 µM)
Enterococcus spp.; E. faecalis MMX 8962, VRE
  MIC: 64 µg/mL (≈ 177 µM)
Enterococcus spp.; E. faecium MMX 485, VRE vanA
  MIC: > 64 µg/mL
Enterococcus spp.; E. faecium MMX 752, VRE vanA
  MIC: > 64 µg/mL
[5]; Streptococcus agalactiae, S. agalactiae MMX 3741
  MIC: 0.25 µg/mL (≈ 0.692 µM)
[5]; Streptococcus pyogenes, S. pyogenes MMX 5091
  MIC: 0.5 µg/mL (≈ 1.38 µM)
[6]
  MIC: > 4 µg/mL

## Cc1onc(-c2ccccc2)c1C(=O)N[C@@H]1C(=O)N2[C@@H]1SC(C)(C)[C@@H]2C(=O)O [Oxacillin]
S. aureus [3]
  CLSI QC range of MIC: (0.12-0.25) μg/mL

## C1C[S][Bi]([S]CC[S][Bi]2[S]CC[S]2)[S]1 [X-ray amorphous BisEDT]
[7]; Cycle 1, heat to 85° C.
  Temperature cycling DSC: broad, weak endotherm (approximate peak max): Broad, weak endotherm at 75 °C
[7]; Cycle 4, heat to 130° C., 10° C./min
  Temperature cycling DSC: small endotherm (peak max): Small endotherm at 112 °C (peak max)
[7]; Cycle 7, heat to 200° C., 10° C./min
  Temperature cycling DSC: sharp exotherm (peak max): Sharp exotherm at 160 °C (peak max)
[7]; conventional DSC
  DSC: broad endotherm (peak max): Broad endotherm at 64 °C (peak max)
  DSC: sharp strong exotherm (peak max): Sharp strong exotherm at 168 °C
  DSC: small endotherm (peak max): Small endotherm at 112 °C (peak max)
  DSC: small exotherm (peak max): Small exotherm at 145 °C (peak max)
[7]; [11]
  Modulated DSC: broad weak endotherm (peak max): Broad weak endotherm at 47 °C
  Modulated DSC: heat flow fluctuations: Heat flow fluctuations above 140 °C
  Modulated DSC: small endotherm (peak max): Small endotherm at 104 °C (peak max)
  Modulated DSC: small exotherm (peak max): Small exotherm at 134 °C (peak max)
[7]; reversing heat flow
  Modulated DSC: Tg (midpoint of step change): Tg at 101 °C (midpoint of step change)
[7]; reversing heat flow, at Tg
  Modulated DSC: ΔCp: (ΔCp 0.3 J/(g*K)

## CCC[C@@H]1C[C@@H](C(=O)N[C@@H]([C@H]2O[C@H](SC)[C@H](O)[C@@H](O)[C@H]2O)[C@H](C)Cl)N(C)C1 [clindamycin, reference compound]
S. aureus [1]
  MIC: 0.12 µg/mL (≈ 0.282 µM)
Enterococcus spp.; E. faecalis MMX 8960, VRE
  MIC: > 32 µg/mL
Enterococcus spp.; E. faecalis MMX 8961, VRE
  MIC: > 32 µg/mL
Enterococcus spp.; E. faecalis MMX 8962, VRE
  MIC: > 32 µg/mL
Enterococcus spp.; E. faecium MMX 485, VRE vanA
  MIC: > 32 µg/mL
Enterococcus spp.; E. faecium MMX 752, VRE vanA
  MIC: > 32 µg/mL
[8]; Bacteroides fragilis, ATCC25285, B. fragilis MMX 123 (ATCC 25285), QC
  MIC: 1 µg/mL (≈ 2.35 µM)
[8]; C. difficile MMX 4381 (ATCC 700057), QC, CC^1
  MIC: 4 µg/mL (≈ 9.41 µM)
[8]; C. difficile MMX 5680 (NCTC 13336), ribotype 027, CC^1 MET^R
  MIC: 4 µg/mL (≈ 9.41 µM)
[8]; C. difficile MMX 5681 (NCTC 13307), ribotype 012, CC^R
  MIC: > 64 µg/mL
[8]; C. difficile MMX 8272, ribotype 255, CC^1
  MIC: 4 µg/mL (≈ 9.41 µM)
[8]; C. difficile MMX 8279, ribotype 005, CC^R
  MIC: > 64 µg/mL
[8]; C. difficile MMX 8281, ribotype 010, CC^R
  MIC: > 64 µg/mL
[6]
  MIC: > 4 µg/mL

## NC[C@H]1O[C@H](O[C@H]2[C@H](O)[C@@H](O[C@H]3O[C@H](CO)[C@@H](O)[C@H](N)[C@H]3O)[C@H](N)C[C@@H]2N)[C@H](N)C[C@@H]1O [tobramycin, Tobramycin, reference compound]
[9]
  CFU higher in cultures with sputum vs without: 0.5-1 log CFU/mL
P. aeruginosa; [12]
  FICB: 1
  MICB: 128 µg/mL
P. aeruginosa; [13]
  FICB: 2
  MICB: 256 µg/mL
P. aeruginosa; [14]
  FICB: 1
  MICB: 0.5 µg/mL
P. aeruginosa; [15]
  FICB: 1
  MICB: 0.0005 µg/mL
[10]; B. cenocepacia 548, FIC of Tobramycin (Drug B) in combination with BisEDT
  FICB: 0.25 and 0.5
[10]; B. cenocepacia 548, MIC of Tobramycin (Drug B) in combination with BisEDT
  MICB: 8 µg/mL and 16 µg/mL
[10]; B. cenocepacia 813, FIC of Tobramycin (Drug B) in combination with BisEDT
  FICB: 0.5 and 1
[10]; [16]
  FICB: 0.5 and 1
  MICB: 8 µg/mL and 16 µg/mL
[10]; B. multivorans 1795, FIC of Tobramycin (Drug B) in combination with BisEDT
  FICB: 1
[10]; B. multivorans 1795, MIC of Tobramycin (Drug B) in combination with BisEDT
  MICB: >256 µg/mL
